Laboratory results from EP0174114A1, “Platinum complexes of ascorbic acid and ascorbic acid analogs” (priority 1984, dated 1986).
“And” between values parts separate entries of the source, which are not always exact repeats. Identical values can stand only once.

Test system: S180 ascites
Assay: Screening for antitumor activity against S180 ascites (increase in life span, survivors)
Format: in vivo, female CFW Swiss mice
Description: The various Pt ascorbate analogs were tested for antitumor activity against S180 ascites in female CFW Swiss mice by the following procedure.
CFW mice, averaging 20 g, are immediately inspected and placed in newly prepared cages. On day zero the mice are inoculated with 0.2 ml of a freshly prepared saline suspension (0.15 M NaCl) containing […], or a total of 2 x 10^6 cells. This inoculum is freshly prepared using "transfer" mice which have been injected with tumor cells the previous week. This inoculum is the end product of a series of steps which involve (1) the removal of the cells from the peritoneal cavity of the sacrificed transfer mouse, (2) alternate centrifugation-washing (2-3 times with cold saline) to remove occasional blood and other undesirable components, and finally (3) dilution (1:3) of the packed cell volume with saline (the final centrifugation being carried out at 1,000 rpm for 2 min). A cell count is made on a 2,000--fold dilution of this 1:3 suspension by means of a Coulter Counter. A final dilution to 1 x 10^7 cells/ml is made based on the averaged count. On day 1, solutions of the test compounds are prepared and the mice injected, with each mouse of a set of six being injected with the same test compound at the same dose level. Also, on this day, two types of controls (6 mice/set) are employed: (1) Normal (1 set): 0.5 ml of the solvent medium used for the test compound, and (2) Positive control (1 set): a known anti-tumor agent (cis-[Pt(NH3)2cI2] in saline at 8 mg/kg), used to test the response to the biological system.
The effectiveness of a compound is measured in terms of the increase in life span (% ILS) of the test animals relative to the controls (calculated from the day of tumor inoculation, day zero). In order to standardize the test data and permit intercomparisons to be made, the day of evaluation is arbitrarily taken as that day corresponding to twice the mean life-span (or average day of death) of the normal controls. This sets a practical upper limit of 100% on the ILS attainable. For calculation purposes, survivors on the day of evaluation are considered to have died on that day. The % ILS is formulated as: [formula]
ILS values above 50% represent significant activity; those above 75% represent excellent activity.

[1] = positive control of the same experiment, in saline at 8 mg/kg, 8 mg/kg
[2] = dose 10 mg/kg, administered in water
[3] = dose 20 mg/kg, administered in water
[4] = dose 40 mg/kg, administered in water
[5] = dose 80 mg/kg, administered in water
[6] = dose 160 mg/kg, administered in water
[7] = dose 320 mg/kg, administered in water
[8] = dose 5 mg/kg, administered in HNO3 ascorbic acid
[9] = dose 10 mg/kg, administered in HNO3 ascorbic acid
[10] = dose 20 mg/kg, administered in HNO3 ascorbic acid
[11] = dose 40 mg/kg, administered in HNO3 ascorbic acid
[12] = dose 80 mg/kg, administered in HNO3 ascorbic acid
[13] = dose 160 mg/kg, administered in HNO3 ascorbic acid
[14] = dose 320 mg/kg, administered in HNO3 ascorbic acid
[15] = dose 640 mg/kg, administered in HNO3 ascorbic acid
[16] = dose 640 mg/kg, administered in water
[17] = dose 800 mg/kg, administered in water
[18] = dose 1280 mg/kg, administered in water
[19] = dose 1920 mg/kg, administered in water
[20] = dose 5 mg/kg, administered in water
[21] = dose 5 mg/kg, administered in water, injected day 1, 5 mg/kg

## N.N.[Cl][Pt][Cl] [Control, cis-[Pt(NH3)2cI2], reference compound]
[1]
  Control 30-Day Survivors: 6/6 and 1/6 and 4/6 and 3/6 and 2/6 and 0/6 and 5/6
  Control %ILS: 98% and 67% and 77% and 86% and 79% and 76% and 71% and 94%

## Cis-[Pt(NH3)2(ascorbate)].2H2O [cis[Pt(NH3)2-(ascorbate)]]
[2]
  30-Day Survivors: 0/6
  %ILS: -2%
[3]
  30-Day Survivors: 0/6
  %ILS: 6%
[4]
  30-Day Survivors: 0/6
  %ILS: -6%
[5]
  30-Day Survivors: 0/6
  %ILS: -1%
[6]
  30-Day Survivors: 1/6
  %ILS: 57%
[7]
  30-Day Survivors: 3/6
  %ILS: 79%

## Pt(cis-dach)(ascorbate)2·2H2O [[Pt(cis-dach)-(ascorbate)2]]
[2]
  30-Day Survivors: 0/6
  %ILS: 21%
[3]
  30-Day Survivors: 0/6
  %ILS: 12%
[4]
  30-Day Survivors: 0/6
  %ILS: 29%
[5]
  30-Day Survivors: 0/6
  %ILS: 60%
[6]
  30-Day Survivors: 5/6
  %ILS: 97%
[7]
  30-Day Survivors: 1/6
  %ILS: 68%

## Pt(ethylenediamine)(ascorbate) [listing 1 of 2 here]
[2]
  30-Day Survivors: 0/6
  %ILS: 4%
[3]
  30-Day Survivors: 0/6
  %ILS: 6%
[4]
  30-Day Survivors: 0/6
  %ILS: 22%
[5]
  30-Day Survivors: 0/6
  %ILS: -2%
[6]
  30-Day Survivors: 0/6
  %ILS: 10%
[7]
  30-Day Survivors: 0/6
  %ILS: 24%

## Pt(ethylenediamine)(ascorbate) [listing 2 of 2 here]
After contact with an aqueous acid solution
  activity against Sarcoma 180 ascites tumors in comparison with the unacidified complex: enhanced activity
[8]
  30-Day Survivors: 0/6
  %ILS: 3%
[9]
  30-Day Survivors: 0/6
  %ILS: 27%
[10]
  30-Day Survivors: 0/6
  %ILS: 45%
[11]
  30-Day Survivors: 3/6
  %ILS: 75%
[12]
  30-Day Survivors: 3/6
  %ILS: 93%
[13]
  30-Day Survivors: 2/6
  %ILS: 70%

## Pt(trans-R,R-dach)(ascorbate) [Pt(trans-R,R-dach) (ascorbate) (Ex. 12)]
[10]
  30-Day Survivors: 3/6
  %ILS: 67%
[11]
  30-Day Survivors: 3/6
  %ILS: 83%
[12]
  30-Day Survivors: 4/6
  %ILS: 82%
[13]
  30-Day Survivors: 0/6
  %ILS: -75%
[14]
  30-Day Survivors: 0/6
  %ILS: -78%
[15]
  30-Day Survivors: 0/6
  %ILS: -94%

## [Pt (cis-dach) (isoascorbate) [[Pt(cis-dach)-(isoascorbate)]]
[2]
  30-Day Survivors: 0/6
  %ILS: 9%
[3]
  30-Day Survivors: 0/6
  %ILS: 6%
[4]
  30-Day Survivors: 0/6
  %ILS: 6%
[5]
  30-Day Survivors: 0/6
  %ILS: 17%
[6]
  30-Day Survivors: 0/6
  %ILS: 4% and 10%
[7]
  30-Day Survivors: 0/6
  %ILS: 12% and 22%
[16]
  30-Day Survivors: 2/6
  %ILS: 70%
[17]
  30-Day Survivors: 2/6
  %ILS: 92%
[18]
  30-Day Survivors: 3/6
  %ILS: 82%
[19]
  30-Day Survivors: 0/6
  %ILS: 54%

## [Pt(R,R-trans-dach)(ascorbate)].3H2O [[Pt(R,R-trans-dach)-(ascorbate)]]
[2]
  30-Day Survivors: 0/6
  %ILS: 9%
[3]
  30-Day Survivors: 0/6
  %ILS: 6%
[4]
  30-Day Survivors: 0/6
  %ILS: 9%
[5]
  30-Day Survivors: 0/6
  %ILS: 15% and 7%
[6]
  30-Day Survivors: 0/6 and 0/5
[7]
  30-Day Survivors: 3/6
  %ILS: 65% and 55%
[16]
  30-Day Survivors: 5/6
  %ILS: 100%
[17]
  30-Day Survivors: 5/6
  %ILS: 72%
[18]
  30-Day Survivors: 6/6
  %ILS: 100%

## [Pt(cis-dach)(ascorbate)].3H2O [[Pt(cis-dach)-(ascorbate)] (Isomer VI)]
[20]
  30-Day Survivors: 0/6
[21]
  %ILS: 15%
[2]
  30-Day Survivors: 0/6
  %ILS: 23%
[3]
  30-Day Survivors: 0/6
  %ILS: 26%
[4]
  30-Day Survivors: 0/6
  %ILS: 22%
[5]
  30-Day Survivors: 6/6 and 0/6
[6]
  30-Day Survivors: 4/6 and 3/6
  %ILS: 99% and 77%
[7]
  30-Day Survivors: 5/6
  %ILS: 93%

## [Pt(cis-dach)(ascorbate)].3H2O [[Pt(cis-dach)-(ascorbate)] (Isomer VII)]
[20]
  30-Day Survivors: 0/6
[21]
  %ILS: 12%
[2]
  30-Day Survivors: 0/6
  %ILS: 20%
[3]
  30-Day Survivors: 0/6
  %ILS: 20%
[4]
  30-Day Survivors: 0/6
  %ILS: 43%
[5]
  30-Day Survivors: 1/6 and 2/6
  %ILS: 71% and 79%
[6]
  30-Day Survivors: 5/6 and 3/6
  %ILS: 98% and 69%
[7]
  30-Day Survivors: 0/6
  %ILS: -59%
